Patent US20250295639A1, “METHODS FOR TREATING HEART DISEASES” (Cytokinetics, Incorporated, priority 2024, published 2025)

Key:
Assay type in all cases: in vivo, human
[1] = test system: patients with nonobstructive hypertrophic cardiomyopathy (nHCM); assay: FOREST-HCM open-label extension, 36-week analysis in nHCM
Description: An open-label extension clinical trial of aficamten in patients with symptomatic oHCM was initiated and was described as Example 3b in WO 2024/031016 and in U.S. Patent Publication US-2024-0115554-A1, the disclosures of which are incorporated by reference herein. The treatment duration is anticipated to be multiple years. The primary objective of the trial is to determine the safety and tolerability of aficamten over a 5-year period. Safety and efficacy of aficamten in patients with nonobstructive hypertrophic cardiomyopathy (nHCM). Thirty-four patients were enrolled (mean age±SD 57.2±15.3 years, 62% women). At baseline, patients were symptomatic (41% NYHA class III) with median (IQR) NT-proBNP and hs-cTnI of […] (735, 1735) and 24.9 ng/L (9.7, 46.4), respectively. By the end of the titration period (week 6), 3 (8.8%), 3 (8.8%), 6 (17.6%) and 22 (64.7%) patients received doses of 5, 10, 15, and 20 mg daily, respectively. At baseline, LVEF (mean±SD) was 70%±6.1; over 36-weeks, there was a modest reduction of 4.3%±5.2 (p<0.0001). NYHA class improved by ≥1 class in 27 (79.4%) patients, including 20 (58.8%) were asymptomatic (NYHA class I) by week 36. The mean KCCQ-CSS improved by 13.8±12.52 points relative to baseline, with 24/31 (77.4%) patients reporting improvements of ≥5 points. […] Most patients achieved the highest available dose while maintaining normal LVEF.

[2] = test system: patients with obstructive hypertrophic cardiomyopathy (oHCM); assay: FOREST-HCM: standard of care (SoC) medications withdrawal in oHCM patients treated with aficamten
Description: Safety and Outcomes of Standard of Care Medications Withdrawal in Patients with Obstructive Hypertrophic Cardiomyopathy (oHCM) Treated with Aficamten in FOREST-HCM Trial. Standard of care (SoC) medications for the treatment of obstructive hypertrophic cardiomyopathy (oHCM) are currently recommended as first-line therapy. There are, however, off-target side-effects that often render them poorly tolerated. Patients were classified as receiving SoC therapy (both first line and second line) if treated with at least one drug (beta-blocker [BB], non-dihydropyridine calcium channel blocker [CCB], and/or disopyramide). Patients were eligible for protocol-guided SoC withdrawal after receiving a stable dose of aficamten for ≥4-weeks and after Week 12 of the study, at the discretion of the site investigator. Successful SoC withdrawal was defined as at least a 50% dose-reduction in one medication relative to baseline. All patients were also required to have ≥1 clinical, echocardiographic and biomarker assessment after attempted withdrawal. Adverse events (AE) were prospectively evaluated 1-2 weeks after any SoC withdrawal. […] Independent of attempted withdrawal, patients maintained relief of obstruction, improvement in symptoms and health status, and low cardiac biomarkers (Table 1). In the group with successful SoC withdrawal, no clinically significant differences were observed between pre and post SoC withdrawal attempt (Table 1). Overall, there was a modest reduction in left ventricular ejection fraction (LVEF) of −3.5%±6.0 from baseline, also with no differences between groups.

[3] = test system: patients with symptomatic oHCM; assay: SEQUOIA-HCM: eligibility for septal reduction therapy (SRT); conditions: aficamten (32 eligible at entry)
Description: Eligibility for Septal Reduction Therapy (SRT). At study entry, 61 (22%) patients with oHCM were eligible for SRT based on guideline criteria (LV outflow gradient ≥50 mmHg at rest or Valsalva and NYHA class III or IV), of which 32 (23%) were assigned to aficamten and 29 (20%) to placebo. By week 12, 32 (100%) patients treated with aficamten were no longer guideline-eligible for SRT vs. 7 (24%) patients treated with placebo (P<0.001). At week 24, 28 (88%) patients treated with aficamten were no longer guideline-eligible for SRT vs. 15 (52%) on placebo (P<0.002).

[4] = No SoC Withdrawal Group, Post (Week 24)
[5] = No SoC Withdrawal Group, Pre (Week 12)
[6] = No SoC Withdrawal Group, Week 24 vs Week 12
[7] = Successful SoC Withdrawal Group, Post SoC withdrawal
[8] = Successful SoC Withdrawal Group, Pre SoC withdrawal
[9] = Successful SoC Withdrawal Group, post vs pre
[10] = of the 68 who underwent withdrawal attempt
[11] = successful SoC withdrawal cohort vs no SoC withdrawal

For `CCc1nc(-c2ccc3c(c2)CC[C@H]3NC(=O)c2cnn(C)c2)no1` [aficamten, (R)—N-(5-(5-ethyl-1,2,4-oxadiazol-3-yl)-2,3-dihydro-1H-inden-1-yl)-1-methyl-1H-pyrazole-4-carboxamide], the “patients reporting KCCQ-CSS improvements of ≥5 points” value ([1]; 24/31 patients) was 77.4%, the “patients asymptomatic (NYHA class I)” value ([1]; by week 36) was 58.8% and the “drug discontinuations due to adverse events” value ([1]; in vivo) was “no drug discontinuations due to adverse events”. The “patients with LVEF<50%” value ([1]; in vivo) was 5.9%, the “reduction in LVEF (mean±SD)” value ([1]; over 36-weeks) was 4.3% and the tolerability ([1]; over the study period) was “well tolerated”. The “NT-proBNP median change from baseline” value ([1]; week 36) was -665.5 pg/mL, the “hs-cTnI median change from baseline” value ([1]; week 36) was -2.7 ng/L and the “mean KCCQ-CSS improvement relative to baseline” value ([1]; week 36) was 13.8±12.52 points. For the same molecule, the “patients with NYHA class improved by ≥1 class” value ([1]; week 36) was 79.4%, the “KCCQ CSS, Mean (SD)” value [2, 4] was 88.5 (12.55) and the “LVEF, Mean (SD)” value [2, 4] was 64.4 (5.3) %. For the same molecule, the “LVOT-G, Rest, Mean (SD)” value [2, 4] was 14.0 (12.6) mmHg, the “LVOT-G, Valsalva, Mean (SD)” value [2, 4] was 32.2 (25.2) mmHg and the “NT-proBNP, median” value [2, 4] was 158.5 pg/mL. The “NYHA class I” value [2, 4] was “I: 35 (54.7%) n(%)”, the “NYHA class III” value [2, 4] was “III: 2 (3.1%) n(%)” and the “NYHA class IV” value [2, 4] was “IV: 0 n(%)”. For the same molecule, the “hs-cardiac-TnI, median” value [2, 4] was 6.3 ng/L, the “KCCQ CSS, Mean (SD)” value [2, 5] was 87.3 (13.12) and the “LVEF, Mean (SD)” value [2, 5] was 65.3 (4.9) %. For the same molecule, the “LVOT-G, Rest, Mean (SD)” value [2, 5] was 19.5 (17.6) mmHg, the “LVOT-G, Valsalva, Mean (SD)” value [2, 5] was 42.2 (26.0) mmHg and the “NT-proBNP, median” value [2, 5] was 191.5 pg/mL. The “NYHA class I” value [2, 5] was “I: 34 (53.19%) n(%)”, the “NYHA class III” value [2, 5] was “III: 3 (4,7%) n(%)” and the “NYHA class IV” value [2, 5] was “IV: 0 n(%)”. For the same molecule, the “hs-cardiac-TnI, median” value [2, 5] was 7.6 ng/L, the “KCCQ CSS, change” value [2, 6] was 1.2 and the “LVEF, change” value [2, 6] was −0.9%. For the same molecule, the “LVOT-G, Rest, change” value [2, 6] was −5.5 mmHg, the “LVOT-G, Valsalva, change” value [2, 6] was −10.0 mmHg and the “NT-proBNP, change” value [2, 6] was -3.0 pg/mL. The “hs-cardiac-TnI, change” value [2, 6] was -0.5 ng/L, the “KCCQ CSS, Mean (SD)” value [2, 7] was 83.8 (18.18) and the “LVOT-G, Rest, Mean (SD)” value [2, 7] was 16.6 (13.7) mmHg. For the same molecule, the “LVOT-G, Valsalva, Mean (SD)” value [2, 7] was 35.6 (29.1) mmHg, the “NT-proBNP, median” value [2, 7] was 250.0 pg/mL and the “NYHA class I” value [2, 7] was “I: 26 (46.4%) n(%)”. For the same molecule, the “NYHA class II” value [2, 7] was “II: 26 (46,4%) n(%)”, the “NYHA class III” value [2, 7] was “III: 4 (7.1%) n(%)” and the “NYHA class IV” value [2, 7] was “IV: 0 n(%)”. The “hs-cardiac-TaI, median” value [2, 7] was 5.8 ng/L, the “LVEF, Mean (SD)” value ([2]; Successful SoC Withdrawal Group, Post SoC withdrawal, site read echo) was 65.5 (6.4) % and the “KCCQ CSS, Mean (SD)” value [2, 8] was 80.2 (17.20). The “LVOT-G, Rest, Mean (SD)” value [2, 8] was 13.2 (11.0) mmHg, the “LVOT-G, Valsalva, Mean (SD)” value [2, 8] was 27.9 (22.4) mmHg and the “NT-proBNP, median” value [2, 8] was 330.0 pg/mL. For the same molecule, the “NYHA class I” value [2, 8] was “I: 23 (41.1%) n(%)”, the “NYHA class II” value [2, 8] was “II: 25(44.6%) n(%)” and the “NYHA class III” value [2, 8] was “III: 8(14.3%) n(%)”. The “NYHA class IV” value [2, 8] was “IV: 0 n(%)”, the “hs-cardiac-TaI, median” value [2, 8] was 5.8 ng/L and the “LVEF, Mean (SD)” value ([2]; Successful SoC Withdrawal Group, Pre SoC withdrawal, site read echo) was 64.8 (5.8) %. The “KCCQ CSS, change (95% CI)” value [2, 9] was 3.5 (−0.5, 7.5), the “LVEF, change” value [2, 9] was 0.6% and the “LVOT-G, Rest, change” value [2, 9] was 3.4 mmHg. The “LVOT-G, Valsalva, change (95% CI)” value [2, 9] was 7.7 (0.8, 14.6), mmHg, the “NT-proBNP, change” value [2, 9] was -68.0 pg/mL and the “hs-cardiac-TaI, change” value [2, 9] was 0.0 ng/L. For the same molecule, the “monotherapy patients who later restarted a SoC medication” value ([2]; human, in vivo) was 13.2%, the “serious AEs attributed to SoC withdrawal” value ([2]; human, in vivo) was “no serious AEs” and the “patients achieving aficamten monotherapy” value [2, 10] was 44.1%. The “patients achieving successful SoC withdrawal (at least 50% dose-reduction in one medication)” value [2, 10] was 92.6%, the “patients completely discontinuing at least one SoC medication” value [2, 10] was 61.8% and the “reduction in LVEF from baseline (mean±SD)” value ([2]; overall) was −3.5%. For the same molecule, the “KCCQ CSS, Δ change between cohorts at Week 24” value [2, 11] was 2.3, the “LVEF, Δ change between cohorts at Week 24” value [2, 11] was 1.5% and the “LVOT-G, Rest, Δ change between cohorts at Week 24” value [2, 11] was 8.9 mmHg. The “LVOT-G, Valsalva, Δ change between cohorts at Week 24” value [2, 11] was 17.7 mmHg, the “NT-proBNP, Δ change between cohorts at Week 24” value [2, 11] was -65.0 pg/mL and the “hs-cardiac-TnI, Δ change between cohorts at Week 24” value [2, 11] was 0.5 ng/L. For the same molecule, the “SRT-eligible patients no longer guideline-eligible for SRT” value ([3]; week 12) was 100% and the “SRT-eligible patients no longer guideline-eligible for SRT” value ([3]; week 24) was 88%.
